In patent US20250092002A1, “FLUORINATED CATIONIC LIPIDS FOR USE IN LIPID NANOPARTICLES” (Acuitas Therapeutics, Inc., priority 2021, published 2025):
Read-outs that look alike come from different tables or passages of the source. Marks after values point to notes of the source that are not given here.

What was measured:
[1] = Determination of pKa of formulated lipids (TNS fluorescence assay in lipid nanoparticles); type: physicochemical; conditions: cationic lipid formulated in lipid nanoparticles (cationic lipid/DSPC/cholesterol/PEG-lipid 47.5/10/40.7/1.8 mol %)
Method: As described elsewhere, the pKa of formulated cationic lipids is correlated with the effectiveness of LNPs for delivery of nucleic acids (see Jayaraman et al, Angewandte Chemie, International Edition (2012), 51(34), 8529-8533; Semple et al, Nature Biotechnology 28, 172-176 (2010)). The preferred range of pKa is ˜5 to ˜7. The pKa of each cationic lipid was determined in lipid nanoparticles using an assay based on fluorescence of 2-(p-toluidino)-6-napthalene sulfonic acid (TNS). Lipid nanoparticles comprising cationic lipid/DSPC/cholesterol/PEG-lipid (47.5/10/40.7/1.8 mol %) in PBS at a concentration of 0.4 mM total lipid were prepared using the in-line process as described in Example 1. TNS was prepared as a 100 μM stock solution in distilled water. Vesicles were diluted to 24 μM lipid in 2 mL of buffered solutions containing, 10 mM HEPES, 10 mM MES, 10 mM ammonium acetate, 130 mM NaCl, where the pH ranged from 2.5 to 11. An aliquot of the TNS solution was added to give a final concentration of 1 μM and following vortex mixing fluorescence intensity was measured at room temperature in a SLM Aminco Series 2 Luminescence Spectrophotometer using excitation and emission wavelengths of 321 nm and 445 nm. A sigmoidal best fit analysis was applied to the fluorescence data and the pKa was measured as the pH giving rise to half-maximal fluorescence intensity.

[2] = system: luciferase expression in the liver; test: In vivo luciferase mRNA expression rodent model (liver luciferase after tail vein injection of mRNA-LNP); design: species or system mice; conditions: for Liver Luc @ 0.5 mg/kg (ng luc/g liver): 0.5 mg mRNA/kg; for Liver Luc @ 0.5 mg/kg (ng luc/g liver) / Liver Luc (ng luc/g liver), determined at 0.3 mg/kg / Liver Luc (ng luc/g liver), determined at 1.0 mg/kg: tail vein injection, liver 4 hours after administration; for Liver Luc (ng luc/g liver), determined at 0.3 mg/kg: 0.3 mg/kg (footnote *); for efficacy toward activation of the Luciferase mRNA expression as compared with non-fluorinated analogue: 0.3 mg/kg and 1.0 mg/kg, versus I-5 analogue and I-11 analogue respectively
Method: Lipid nanoparticles were prepared and tested according to the general procedures described in PCT Pub. Nos. WO 2015/199952 and WO 2017/004143, the full disclosures of which are incorporated herein by reference. Briefly, cationic lipid, DSPC, cholesterol and PEG-lipid were solubilized in ethanol at a molar ratio of about 50:10:38.5:1.5 or about 47.5:10:40.7:1.8. Lipid nanoparticles (LNP) were prepared at a total lipid to mRNA weight ratio of approximately 10:1 to 40:1. The mRNA is diluted to 0.2 mg/mL in 10 to 50 mM citrate or acetate buffer, pH 4. Syringe pumps were used to mix the ethanolic lipid solution with the mRNA aqueous solution at a ratio of about 1:5 to 1:3 (vol/vol) with total flow rates above 15 mL/min. The ethanol was then removed and the external buffer replaced with PBS by dialysis. Finally, the lipid nanoparticles were filtered through a 0.2 µm pore sterile filter. Lipid nanoparticle particle size was approximately 55-95 nm diameter, and in some instances approximately 70-90 nm diameter as determined by quasi-elastic light scattering using a Malvern Zetasizer Nano ZS (Malvern, UK).
Studies were performed in 6-8 week old female C57BL/6 mice (Charles River) or 8-10 week old CD-1 (Harlan) mice (Charles River) according to guidelines established by an institutional animal care committee (ACC) and the Canadian Council on Animal Care (CCAC). Varying doses of mRNA-lipid nanoparticle were systemically administered by tail vein injection and animals euthanized at a specific time point (e.g., 4 hours) post-administration. Liver and spleen were collected in pre-weighed tubes, weights determined, immediately snap frozen in liquid nitrogen and stored at −80° C. until processing for analysis.
For liver, approximately 50 mg was dissected for analyses in a 2 mL FastPrep tubes (MP Biomedicals, Solon OH). ¼″ ceramic sphere (MP Biomedicals) is added to each tube and 500 μL of Glo Lysis Buffer—GLB (Promega, Madison WI) equilibrated to room temperature is added to liver tissue. Liver tissues were homogenized with the FastPrep24 instrument (MP Biomedicals) at 2×6.0 m/s for 15 seconds. Homogenate was incubated at room temperature for 5 minutes prior to a 1:4 dilution in GLB and assessed using SteadyGlo Luciferase assay system (Promega). Specifically, 50 μL of diluted tissue homogenate was reacted with 50 μL of SteadyGlo substrate, shaken for 10 seconds followed by 5 minute incubation and then quantitated using a CentroXS^3 LB 960 luminometer (Berthold Technologies, Germany). The amount of protein assayed was determined by using the BCA protein assay kit (Pierce, Rockford IL). Relative luminescence units (RLU) were then normalized to total μg protein assayed. To convert RLU to ng luciferase a standard curve was generated with QuantiLum Recombinant Luciferase (Promega).
The FLuc mRNA (L-6107 or L-7202) from Trilink Biotechnologies will express a luciferase protein, originally isolated from the firefly, Photimus pyralis. FLuc is commonly used in mammalian cell culture to measure both gene expression and cell viability. It emits bioluminescence in the presence of the substrate, luciferin. This capped and poly-adenylated mRNA was fully substituted with respect to uridine and/or cytidine nucleosides.
Representative compounds of the disclosure shown in Table 2 were formulated using the following molar ratio: 50% cationic lipid/10% distearoylphosphatidylcholine (DSPC)/38.5% Cholesterol/1.5% PEG lipid 2-[2-(ω-methoxy(polyethyleneglycol2000)ethoxy]-N,N-ditetradecylacetamide) or 47.5% cationic lipid/10% DSPC/40.7% Cholesterol/1.8% PEG lipid. Relative activity was determined by measuring luciferase expression in the liver 4 hours following administration via tail vein injection as described in Example 1. The activity was compared at a dose of 1.0 or 0.5 or 0.3 mg mRNA/kg and expressed as ng luciferase/g liver measured 4 hours after administration, as described in Example 1. Compound numbers in Table 2 refer to the compound numbers of Table 1. […]

[3] = probe 2-(p-toluidino)-6-napthalene sulfonic acid (TNS), 1 µM final, read-out: pKa

| Compound | pKa [1, 3] | Liver Luc @ 0.5 mg/kg (ng luc/g liver) [2] | Liver Luc (ng luc/g liver), determined at 0.3 mg/kg [2] | Liver Luc (ng luc/g liver), determined at 1.0 mg/kg [2] | pKa [1] | efficacy toward activation of the Luciferase mRNA expression as compared with non-fluorinated analogue [2] |
| --- | --- | --- | --- | --- | --- | --- |
| CCCCCCCCC(CCCCCC)COC(=O)CCCCCC(CCCCCC(=O)OCC(CCCCCC)CCCCCCCC)N(CCCN(C)C)C(=O)CCCC(F)(F)F (stereo not drawn) [Compound I-13, BIS(2-HEXYLDECYL) 7-(N-(3-(DIMETHYLAMINO)PROPYL)-5,5,5-TRIFLUOROPENTANAMIDO)TRIDECANEDIOATE] | 6.68 | 658 ± 262 ng luc/g liver | – | – | – | – |
| CCCCCCC(CCCC)COC(=O)CCCCCC(CCCCCC(=O)OCC(CCCC)CCCCCC)N(CCN(C)C)C(=O)CCCC(F)(F)F (stereo not drawn) [Compound I-16, BIS(2-BUTYLOCTYL) 7-(N-(2-(DIMETHYLAMINO)ETHYL)-5,5,5-TRIFLUOROPENTANAMIDO)TRIDECANEDIOATE] | 5.97 | 1233 ± 305 ng luc/g liver | – | – | – | – |
| CCCCCCCC(F)C(=O)N(CCCN1CCCC1)C(CCCCCCCCC(=O)OCC(CCCC)CCCCCC)CCCCCCCCC(=O)OCC(CCCC)CCCCCC (stereo not drawn) [Compound I-22, BIS(2-BUTYLOCTYL) 10-(2-FLUORO-N-(3-(PYRROLIDIN-1-YL)PROPYL)NONANAMIDO)NONADECANEDIOATE] | 5.96 | – | 10062 ± 2580 ng luc/g liver | 82847 ± 27713 ng luc/g liver | – | – |
| CCCCCCCC(=O)N(C(=O)CCCCN(C)C)C(CCCCCC(=O)OCC(CCCC)CCCCC)CCCCCC(=O)OCC(CCCC)CCCCCC (stereo not drawn) [I-11 analogue, reference compound] | – | – | 1626 ± 472 ng luc/g liver | 8102 ± 4319 ng luc/g liver | 7.04 | – |
| CCCCCCCCC(CCCCCC)COC(=O)CCCCCC(CCCCCC(=O)OCC(CCCCCC)CCCCCCCC)N(CCCN(C)C)C(=O)CC(F)(F)F (stereo not drawn) [Compound I-12, BIS(2-HEXYLDECYL) 7-(N-(3-(DIMETHYLAMINO)PROPYL)-3,3,3-TRIFLUOROPROPANAMIDO)TRIDECANEDIOATE] | 6.22 | – | 138 ± 64* ng luc/g liver | 559 ± 207 ng luc/g liver | – | – |
| CCCCC(CC)COC(=O)CCCCCCCCC(CCCCCCCCC(=O)OCC(CC)CCCC)N(CCCCN(C)C)C(=O)C(F)(F)C(F)(F)C(F)(F)C(F)(F)C(F)(F)C(F)(F)C(F)(F)F (stereo not drawn) [Compound I-5, BIS(2-ETHYLHEXYL) 10-(N-(4-(DIMETHYLAMINO)BUTYL)-2,2,3,3,4,4,5,5,6,6,7,7,8,8,8-PENTADECAFLUOROOCTANAMIDO)NONADECANEDIOATE] | 5.92 | – | 3645 ± 1347 ng luc/g liver | 21585 ± 6204 ng luc/g liver | – | increased efficacy |
| CCCCCCCCC(CCCCCC)COC(=O)CCCCCC(CCCCCC(=O)OCC(CCCCCC)CCCCCCCC)N(CCCCCN(C)C)C(=O)C(F)(F)C(F)(F)C(F)(F)C(F)(F)C(F)(F)C(F)(F)C(F)(F)F (stereo not drawn) [Compound I-9, BIS(2-HEXYLDECYL) 7-(N-(5-(DIMETHYLAMINO)PENTYL)-2,2,3,3,4,4,5,5,6,6,7,7,8,8,8-PENTADECAFLUOROOCTANAMIDO)TRIDECANEDIOATE] | 6.32 | 25 ± 16 ng luc/g liver | – | – | – | – |
| CCCCCCCCCCN(C(=O)C(F)CCCN(C)C)C(CCCCCCCCC(=O)OCC(CCCC)CCCCCC)CCCCCCCCC(=O)OCC(CCCC)CCCCCC (stereo not drawn) [Compound I-24, BIS(2-BUTYLOCTYL) 10-(N-DECYL-5-(DIMETHYLAMINO)-2-FLUOROPENTANAMIDO)NONADECANEDIOATE] | 6.04 | – | 9411 ± 1733 ng luc/g liver | – | – | – |
| CCCCCCCCC(CCCCCC)COC(=O)CCCCCC(CCCCCC(=O)OCC(CCCCCC)CCCCCCCC)N(CCN1CCN(C)CC1)C(=O)C(F)(F)C(F)(F)C(F)(F)C(F)(F)C(F)(F)C(F)(F)C(F)(F)F (stereo not drawn) [Compound I-8, BIS(2-HEXYLDECYL) 7-(2,2,3,3,4,4,5,5,6,6,7,7,8,8,8-PENTADECAFLUORO-N-(2-(4-METHYLPIPERAZIN-1-YL)ETHYL)OCTANAMIDO)TRIDECANEDIOATE] | 5.58 | 0 ng luc/g liver | – | – | – | – |
| CCCCCCCCC(CCCCCC)COC(=O)CCCCCCCCC(CCCCCCCCC(=O)OCC(CCCCCC)CCCCCCCC)N(CCCN(C)C)C(=O)CCCC(F)(F)F (stereo not drawn) [Compound I-14, BIS(2-HEXYLDECYL) 10-(N-(3-(DIMETHYLAMINO)PROPYL)-5,5,5-TRIFLUOROPENTANAMIDO)NONADECANEDIOATE] | 6.28 | 331 ± 127 ng luc/g liver | – | – | – | – |
| CCCCCCC(CCCC)COC(=O)CCCCCC(CCCCCC(=O)OCC(CCCC)CCCCCC)N(CCCCCN(C)C)C(=O)C(F)(F)C(F)(F)C(F)(F)C(F)(F)C(F)(F)C(F)(F)C(F)(F)F (stereo not drawn) [Compound I-11, BIS(2-BUTYLOCTYL) 7-(N-(5-(DIMETHYLAMINO)PENTYL)-2,2,3,3,4,4,5,5,6,6,7,7,8,8,8-PENTADECAFLUOROOCTANAMIDO)TRIDECANEDIOATE] | 6.28 | – | 3411 ± 803* ng luc/g liver | 45575 ± 11088 ng luc/g liver | – | increased efficacy |
| CCCCCCCCC(CCCCCC)COC(=O)CCCCCC(CCCCCC(=O)OCC(CCCCCC)CCCCCCCC)N(CCCCN(C)C)C(=O)C(F)(F)C(F)(F)C(F)(F)C(F)(F)C(F)(F)C(F)(F)C(F)(F)F (stereo not drawn) [Compound I-7, BIS(2-HEXYLDECYL) 7-(N-(4-(DIMETHYLAMINO)BUTYL)-2,2,3,3,4,4,5,5,6,6,7,7,8,8,8-PENTADECAFLUOROOCTANAMIDO)TRIDECANEDIOATE] | 6.08 | 39 ± 14 ng luc/g liver | – | – | – | – |
| CCCCCCC(CCCC)COC(=O)CCCCCC(CCCCCC(=O)OCC(CCCC)CCCCCC)N(CCCCN(C)C)C(=O)C(F)(F)C(F)(F)C(F)(F)C(F)(F)C(F)(F)C(F)(F)C(F)(F)F (stereo not drawn) [Compound I-10, BIS(2-BUTYLOCTYL) 7-(N-(4-(DIMETHYLAMINO)BUTYL)-2,2,3,3,4,4,5,5,6,6,7,7,8,8,8-PENTADECAFLUOROOCTANAMIDO)TRIDECANEDIOATE] | 6.18 | 62 ± 44 ng luc/g liver | – | – | – | – |
